Like-named read-outs stand apart in the source and are kept apart here.

These results are taken from patent publication US20230312631A1, “EXTRUSION PROCESS FOR THE PREPARATION OF A SOLID ALLULOSE COMPOSITION” (SAVANNA INGREDIENTS GMBH, priority 2020, published 2023).

The nature of series [1]: Preliminary tests to estimate supersaturation and undercooling of carbohydrates in water. Type of series: physicochemical. From the text: Therefore, preliminary tests were made in order to estimate supersaturation and overcooling of various carbohydrates in water under different conditions.
The conditions of series [2]: cited from earlier work.
Series [3] is described as follows: Mutarotation: angle of rotation over time after dissolving allulose in water (polarimeter). The series is classed as physicochemical. The following applies: 23° C.; for angle of rotation: desalted water, DS about 26 wt.-%. The procedure: Crystalline allulose was dissolved in water (DS 26 wt.-%). Quickly afterwards, the sample was placed in a polarimeter and the angle of rotation was read off at regular intervals ([…], 23° C.). From this, the angle of rotation was then plotted over time (see FIG. 1). 74.30 g of water and 26.05 g of crystalline allulose were mixed. The mixture was briefly stirred with a stir bar until the allulose was completely dissolved. Then a sample was placed in the polarimeter and the angle of rotation of the same sample was measured at regular intervals. There were approximately 5 minutes between the addition of the allulose and the first measured value (0 min).
Mutarotation of solid allulose obtained in accordance with the present invention was compared to mutarotation of highly crystalline allulose. For this purpose, solutions at a dry substance content of about DS 26 wt.-% were prepared from powdery compositions each having a particle size within the range of from 100 to 200 μm (sieve fraction).
15.61 g of powdery crystalline allulose (comparative) of grain size 100-200 μm were dissolved at 23° C. in 47.6 g desalted water in a 500 mL beaker. The angle of rotation was measured over time with a polarimeter.
13.00 g of extruded allulose (inventive) of grain size 100-200 μm were dissolved at 23° C. in 37.07 g desalted water in a 500 mL beaker. The angle of rotation was measured over time with a polarimeter.
For the sake of better comparability, the specific angle of rotation [(° *ml)/(dm*g)] was calculated for each measured value. The results are visualized in FIG. 2.

For series [4] the following is noted: cited from earlier work. This is another data set of the same source.
The conditions of series [5]: cited from earlier work. This is another data set of the same source.
The mark [6] stands for this setting: mass fraction 90%, temperature 58° C.
Where [7] appears, read: mass fraction 80%, temperature 149° C.
Where [8] appears, read: mass fraction 70% prior to evaporation, temperature 150° C.
Setting [9] is: mass fraction 80% prior to evaporation, temperature 190° C.
Where [10] appears, read: in water, 13C NMR (du Penhoat et al.).

As to `OC[C@H]1O[C@H](OC[C@H]2OC(O)(CO)[C@@H](O)[C@@H]2O)[C@H](O)[C@@H](O)[C@@H]1O` (stereo partly drawn) [isomaltulose], in series [1] (setting [6]), the supersaturation is 35% and the undercooling is on record as 62K.
As for `OC[C@@]1(O)OC[C@@H](O)[C@@H](O)[C@H]1O` [β-D-psicopyranose], in series [2] (in water), the “Mutarotation [α]” value is “about −85 deg dm^−1 cm^3”.
Consider `OC[C@H]1O[C@@](CO)(O[C@H]2O[C@H](CO)[C@@H](O)[C@H](O)[C@H]2O)[C@@H](O)[C@@H]1O` [sucrose], for which, in series [1] (setting [7]), the supersaturation is reported as −14% and the undercooling was 37K.
Regarding `O=C(CO)C(O)C(O)C(O)CO` (stereo not drawn) [comparative, allulose], the angle of rotation in series [3] (time 0 min) is listed as −33.4 °; in series [3] (time 0.5 min), −31.1 °; in series [3] (time 1 min), −29 °; in series [3] (time 1.5 min), −27 °; in series [3] (time 2 min) it was −25.1 °; in series [3] (time 2.5 min) it was −23.35 °. For the same molecule, the angle of rotation in series [3] (time 3 min) is recorded as −21.7 °; in series [3] (time 3.5 min) it was −20.13 °; in series [3] (time 4 min), −18.71 °; in series [3] (time 4.5 min) it was −17.36 °; in series [3] (time 5 min) it was −16.1 °; in series [3] (time 5.5 min) it was −14.91 °. The angle of rotation is listed as −13.8 ° in series [3] (time 6 min); −12.78 ° in series [3] (time 6.5 min); −11.81 ° in series [3] (time 7 min); −10.9 ° in series [3] (time 7.5 min); −10.05 ° in series [3] (time 8 min); −9.25 ° in series [3] (time 8.5 min). Further, the angle of rotation is recorded as −8.51 ° in series [3] (time 9 min); −7.81 ° in series [3] (time 9.5 min); −7.18 ° in series [3] (time 10 min); −6.57 ° in series [3] (time 10.5 min); −6 ° in series [3] (time 11 min); −5.47 ° in series [3] (time 11.5 min). Further, the angle of rotation is −4.98 ° in series [3] (time 12 min); −4.51 ° in series [3] (time 12.5 min); −4.08 ° in series [3] (time 13 min); −3.67 ° in series [3] (time 13.5 min); −3.29 ° in series [3] (time 14 min); −2.93 ° in series [3] (time 14.5 min). Moreover, the angle of rotation is recorded as −2.6 ° in series [3] (time 15 min); −2.29 ° in series [3] (time 15.5 min); −2 ° in series [3] (time 16 min); −1.72 ° in series [3] (time 16.5 min); −1.47 ° in series [3] (time 17 min); −1.23 ° in series [3] (time 17.5 min). Moreover, the angle of rotation in series [3] (time 18 min) was −1 °; in series [3] (time 18.5 min), −0.8 °; in series [3] (time 19 min), −0.6 °; in series [3] (time 19.5 min), −0.41 °; in series [3] (time 20 min), −0.24 °; in series [3] (time 20.5 min), −0.08 °. The angle of rotation in series [3] (time 21 min) is 0.07 °; in series [3] (time 21.5 min) it was 0.22 °; in series [3] (time 22 min) it was 0.35 °; in series [3] (time 22.5 min) it was 0.47 °; in series [3] (time 23 min) it was 0.59 °; in series [3] (time 23.5 min) it was 0.7 °. Moreover, the angle of rotation in series [3] (time 24 min) amounted to 0.8 °; in series [3] (time 24.5 min), 0.9 °; in series [3] (time 25 min), 0.99 °; in series [3] (time 25.5 min) it was 1.07 °; in series [3] (time 26 min) it was 1.15 °; in series [3] (time 26.5 min), 1.22 °. Further, the angle of rotation in series [3] (time 27 min) turned out to be 1.29 °; in series [3] (time 27.5 min) it was 1.36 °; in series [3] (time 28 min) it was 1.42 °; in series [3] (time 28.5 min) it was 1.48 °; in series [3] (time 29 min), 1.53 °; in series [3] (time 29.5 min), 1.58 °. Moreover, the angle of rotation in series [3] (time 30 min) turned out to be 1.63 °; in series [3] (time 35 min) it was 1.96 °; in series [3] (time 40 min) it was 2.13 °; in series [3] (time 45 min), 2.22 °; in series [3] (time 50 min), 2.26 °; in series [3] (time 55 min), 2.29 °. For the same molecule, the angle of rotation in series [3] (time 60 min) turned out to be 2.30 °.
Take `O=C(CO)C(O)C(O)C(O)CO` [allulose, D-allulose]: the “time until the angle of rotation remains constant (chiral species in solution equilibrated)” value in series [3] (26.05 g crystalline allulose in 74.30 g water, DS 26 wt.-%, FIG. 1) was “more than 1 hour”. In series [1] (setting [8]), the supersaturation is −27% and the undercooling is −54K. For the same molecule, in series [1] (setting [9]), the supersaturation was −19% and the undercooling was −94K. In series [4] (25° C.), the solubility was 291 g per 100 g water, the solubility in water is recorded as 291 g in 100 g of water and the “solubility in water expressed as mass fraction” value is recorded as 74%. Moreover, in series [4] (50° C.), the solubility in water was 489 g in 100 g of water and the “solubility in water expressed as mass fraction” value is 83%. In addition, in series [2] (absorbance at 280 nm after dissolution), the “rate constant k of development of open-chain carbonyl-form in solution (first-order)” value is 4.44 ms^−1. For the same molecule, the “equilibrium content of carbonyl-form” value in series [2] (in solution) was “about 0.2%”. In series [5] (in D2O at 303.15 K), the “percent composition of anomeric forms: keto form” value is listed as 0.2%, the “percent composition of anomeric forms: α-furanose” value was 39%, the “percent composition of anomeric forms: α-pyranose” value is recorded as 22% and the “percent composition of anomeric forms: β-furanose” value is reported as 15%. The “percent composition of anomeric forms: β-pyranose” value in series [5] (in D2O at 303.15 K) was 24%. Besides, in series [5] (setting [10]), the “equilibrium composition: α-furanose” value is on record as 37%, the “equilibrium composition: α-pyranose” value is about 26%, the “equilibrium composition: β-furanose” value was about 11% and the “equilibrium composition: β-pyranose” value was about 26%.
